Reference: patent publication US9211270B2, “Method for improving the efficacy of curcuminoids and their analogs” (ASAC Compañía de Biotecnología e Investigación, S.A., priority 2007, dated 2015)

How the values were obtained:
[1] = test system: A431 cells (human epidermal carcinoma); assay: Inhibition of tumor growth in mice, intraperitoneal Curcumin with visible light; format: in vivo, athymic nude mice (NMRI); details: day 12, Curcumin 50 mg/kg per day i.p. + visible light 5500 lx 20 minutes
Protocol: 5*10^6 A431 cells (human epidermal carcinoma) were injected subcutaneously into the left and right flanks of athymic nude mice (NMRI) (5-6 weeks old, 20-24 g). The mice were fed in pathogen-free conditions. The animals were fed ad libitum with sterilized food. The animals were sterilized with ketamine/xylazine.
The irradiation device was 10 Phillips TLK 40W/03 lamps (60 cm length*4 cm diameter), at a distance of 45 cm. The emission range of the lamps was between 400-550 nm with a maximum at 420 nm.
Tumor size was measured initially and after 10-12 days; afterwards tumor volumes and weights were determined twice a week. At the end of the experiment (29 days), the animals were anesthetized and sacrificed.

[2] = test system: psoriasis; details: 12 week studies; cited from earlier work

## COc1cc(/C=C/C(=O)CC(=O)/C=C/c2ccc(O)c(OC)c2)ccc1O [Curcumin, curcumin (diferuloylmethane)]
[1]
  reduction of average tumor volume in comparison to control mice: 70%

## Efalizumab
[2]
  patients who reached a score of PASI-75: 22-35%
